Laboratory results from patent publication US7901879B2, “Lactoferrin in the treatment of malignant neoplasms and other hyperproliferative diseases” (Agennix Incorporated, priority 2002, dated 2011).

Test system: murine squamous carcinoma cell line (SCCVII)
Test: SCCVII floor-of-mouth tumor growth, oral rhLF and/or cisplatin (Example 6)
Assay type: in vivo, immunocompetent C3H mice
Method: A murine squamous carcinoma cell line (SCCVII) was injected into the floor of the mouth through the neck skin of immunocompetent C3H mice (Day 0). […] Tumors were measured in three dimensions with calipers.
Tumor-bearing mice were randomized into a control group and seven groups receiving rhLF and/or cisplatin. RhLF (4 mg; 200 mg/Kg) was administered once daily by oral gavage for 8 days on days 5 through 12. Cisplatin was administered as a single dose of 5 mg/Kg given intraperitoneally either at the start of rhLF (day 5), in the middle (day 8) or at the end (day 12) of rhLF therapy. Animals were sacrificed on day 12 post-implantation and the residual tumor masses were measured and processed for later additional analyses.

Q: What does the source list for `N.N.[Cl][Pt][Cl]` [CP, Cisplatin]?
A: TGI (%) Relative to Placebo (cisplatin 5 mg/kg i.p. on day 5, with rhLF 200 mg/kg oral days 5-12 where combined): 68%; TGI (%) Relative to Placebo (cisplatin 5 mg/kg i.p. on day 8, with rhLF 200 mg/kg oral days 5-12 where combined): 6%; TGI (%) Relative to Placebo (cisplatin 5 mg/kg i.p. on day 12, with rhLF 200 mg/kg oral days 5-12 where combined): 42%; TGI (%) Relative to Placebo (pooled cisplatin day 5, 8 and 12 groups): 38%
